Measured values reported in patent US4758555A, “Method for treating convulsions and epilepsy with organic copper compounds” (priority 1986, dated 1988).

Assays:
Type in all cases: in vivo, male Carworth Farms #1 mice or Sprague-Dawley rats
[1] = Maximal Electroshock Seizure Test; settings: for Lowest effective dose, MES (Phase I): Table X
[2] = Anticonvulsant activity, both or unspecified seizure models; settings: running text
[3] = Subcutaneous Pentylenetetrazol (Metrazol) Seizure Threshold Test; settings: for Lowest effective dose, Metrazol (Phase I): Table X

O=C([O-])c1ccccc1OC(=O)C12CC3CC(CC(C3)C1)C2.O=C([O-])c1ccccc1OC(=O)C12CC3CC(CC(C3)C1)C2.O=C([O-])c1ccccc1OC(=O)C12CC3CC(CC(C3)C1)C2.O=C([O-])c1ccccc1OC(=O)C12CC3CC(CC(C3)C1)C2.[Cu+2].[Cu+2] [Cu(II)2 (adamantylsalicylate)4]
Anticonvulsant activity, Maximal Electroshock (Phase I) ([1]; Table I, SC): I
Anticonvulsant activity (in words) [2]: anticonvulsant activity at 30 minutes following subcutaneous injection at 30 and 300 mg/kg

Cu(II)(L-glutamate)2
Anticonvulsant activity (in words) [2]: found to have anticonvulsant activity

CC(C)c1cc(C(=O)[O-])c(O)c(C(C)C)c1.CC(C)c1cc(C(=O)[O-])c(O)c(C(C)C)c1.[Cu+2] [Cu(II)(3,5-diisopropylsalicylate)2]
Anticonvulsant activity (in words) [2]: effective in preventing both the Maximal Electroshock and Metrazol-inducedseizures in Phase I studies

N[C@@H](Cc1c[nH]c2ccccc12)C(=O)[O-].N[C@@H](Cc1c[nH]c2ccccc12)C(=O)[O-].[Cu+2] [Cu(II)(L-tryptophanate)2]
Anticonvulsant activity (in words) [2]: found to have anticonvulsant activity

CC(C)(C)c1cc(C(=O)[O-])c(O)c(C(C)(C)C)c1.CC(C)(C)c1cc(C(=O)[O-])c(O)c(C(C)(C)C)c1.[Cu+2] [Cu(II)(3,5-ditertiarybutylsalicylate)2]
Anticonvulsant activity (in words) [2]: effective at the higher doses studied and for prolonged periods of up to 4 hours
Anticonvulsant activity (in words) ([2]; listed as 3,5-ditertiarybutylsalicylate): effective in preventing both the Maximal Electroshock and Metrazol-inducedseizures in Phase I studies

O.O.O.O=C([O-])c1cc(Br)cc(Br)c1O.O=C([O-])c1cc(Br)cc(Br)c1O.[Cu+2] [Cu(II)(3,5-dibromosalicylate)2 (H2 O)3]
Anticonvulsant activity (in words) [2]: effective in preventing both the Maximal Electroshock and Metrazol-inducedseizures in Phase I studies

CC(C)C[C@H](N)C(=O)[O-].CC(C)C[C@H](N)C(=O)[O-].[Cu+2] [Cu(II)(L-leucinate)2]
Anticonvulsant activity (in words) [2]: found to have anticonvulsant activity

N[C@@H](CO)C(=O)[O-].N[C@@H](CO)C(=O)[O-].[Cu+2] [Cu(II)(L-serinate)2]
Anticonvulsant activity (in words) [2]: found to have anticonvulsant activity

Cu(II)2 (benzoate)4
Anticonvulsant activity (in words) [2]: effective in protecting against both Maximal Electroshock and Metrazol-induced seizures

CCC1(c2ccccc2)C(=O)[N-]C(=O)NC1=O.CCC1(c2ccccc2)C(=O)[N-]C(=O)NC1=O.CCC1(c2ccccc2)C(=O)[N-]C(=O)NC1=O.CCC1(c2ccccc2)C(=O)[N-]C(=O)NC1=O.O.O.O.O.O.O.O.O.O.O.O.[Cu+2].[Cu+2] [Cu(II)(Phenobarbital)2 (H2 O)5.5]
Lowest effective dose, MES (Phase I) ([1]; IP, challenge time 30 min): 30 milligrams per kilogram of bod
Lowest effective dose, MES (Phase I) ([1]; IP, challenge time 4 hrs): 30 milligrams per kilogram of bod
Lowest effective dose, MES (Phase I) ([1]; SC, challenge time 30 min): 30 milligrams per kilogram of bod
Lowest effective dose, MES (Phase I) ([1]; SC, challenge time 4 hrs): 30 milligrams per kilogram of bod
Lowest effective dose, Metrazol (Phase I) ([3]; IP, challenge time 30 min): 5 milligrams per kilogram of bod
Lowest effective dose, Metrazol (Phase I) ([3]; IP, challenge time 4 hrs): 5 milligrams per kilogram of bod
Lowest effective dose, Metrazol (Phase I) ([3]; SC, challenge time 30 min): 30 milligrams per kilogram of bod
Lowest effective dose, Metrazol (Phase I) ([3]; SC, challenge time 4 hrs): 30 milligrams per kilogram of bod

CCC1(c2ccccc2)NC(=O)NC1=O.CO.[OH][Cu][Cl] (stereo not shown) [Cu(II)5-ethyl-5-phenylhydantoin(HO)(Cl)(CH3 OH)]
Lowest effective dose, MES (Phase I) ([1]; IP, challenge time 30 min): 30 milligrams per kilogram of bod
Lowest effective dose, MES (Phase I) ([1]; IP, challenge time 4 hrs): I
Lowest effective dose, Metrazol (Phase I) ([3]; IP, challenge time 30 min): 30 milligrams per kilogram of bod
Lowest effective dose, Metrazol (Phase I) ([3]; IP, challenge time 4 hrs): I

O=C1CN=C(c2ccccc2Cl)c2cc([N+](=O)[O-])ccc2N1 [Clonazepam, reference compound]
ED50 ([1]; Mus musculus, ip, read-out: ED50 for inhibition of seizures, MES (Phase II)): 19 mg/kg
ED50 ([3]; Mus musculus, ip, read-out: ED50 for inhibition of seizures, Metrazol (Phase II)): 0.2 mg/kg
